From patent publication US20080090805A1, “CB-1 MODULATING COMPOUNDS AND THEIR USE” (ACADIA PHARMACEUTICALS INC., priority 2005, published 2008)
Where two headings read alike, the source gives them in different places.

Biological target: CB1 (mutant) (Homo sapiens, UniProt P21554)
Assay: R-SAT functional receptor assay, CB1 (mutant, truncated after amino acid 417)
Type: cell-based
Settings: R-SAT CB1; for IC50 / pIC50: receptor form (mutant or wild-type) not stated; for Emax / % Inhibition: receptor form not stated, relative to SR141716 (100%); for Emax: read-out: % Inhibition
[1] = Appendix A, read-out: pIC50 (converted)

Sequence of CB1 (mutant) (P21554 1-417, change not shown): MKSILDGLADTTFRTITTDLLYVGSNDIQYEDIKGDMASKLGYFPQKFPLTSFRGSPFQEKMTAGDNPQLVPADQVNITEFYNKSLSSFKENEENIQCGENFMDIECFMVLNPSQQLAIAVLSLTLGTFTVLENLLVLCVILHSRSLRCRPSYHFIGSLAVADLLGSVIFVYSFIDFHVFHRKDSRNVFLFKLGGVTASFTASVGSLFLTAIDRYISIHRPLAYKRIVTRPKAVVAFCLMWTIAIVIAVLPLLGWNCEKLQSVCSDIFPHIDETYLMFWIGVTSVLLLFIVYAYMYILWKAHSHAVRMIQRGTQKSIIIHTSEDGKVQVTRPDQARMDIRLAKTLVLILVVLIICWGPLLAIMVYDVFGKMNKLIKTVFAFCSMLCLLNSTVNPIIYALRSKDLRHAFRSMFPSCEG

| SMILES | IC50 [1] [nM] | Emax (Appendix A) [%] | % Inhibition (Appendix A) [%] | IC50 (pIC50, Appendix A) [nM] | pIC50 (Appendix A) |
| --- | --- | --- | --- | --- | --- |
| CC(C)CNC(=O)c1ccc2c(c1)N=C(c1ccsc1)c1ccccc1S2 [drawing 581] | 3.16 | 90 | – | – | – |
| O=C(NCc1ccccc1)c1ccc2c(c1)N=C(C1CCCCC1)c1ccccc1S2 [drawing 877] | 15.8 | 97 | – | – | – |
| O=C(NCCc1ccccn1)c1ccc2c(c1)N=C(c1ccc(Cl)cc1F)c1ccccc1S2 [drawing 562] | 50.1 | 96 | – | – | – |
| O=C(c1ccc2c(c1)N=C(c1cccc(Cl)c1)c1ccccc1S2)N1CCCCC1 | 39.8 | 80 | – | – | – |
| O=C(NCc1ccc(F)cc1)c1ccc2c(c1)N=C(c1ccc(Cl)cc1)c1ccccc1S2(=O)=O [drawing 961] | 20 | 108 | – | – | – |
| O=C(NCc1cccs1)c1ccc2c(c1)N=C(c1ccccc1F)c1ccccc1S2 [drawing 795] | 10 | 114 | – | – | – |
| O=C(NN1CCCC1)c1ccc2c(c1)N=C(c1cccc(F)c1)c1ccccc1S2 | – | 67 | – | – | – |
| O=C(NN1CCCCCC1)c1ccc2c(c1)N=C(c1cccc(F)c1)c1ccccc1S2 [drawing 883] | – | – | 96 | 15.8 | – |
| CCCCNC(=O)c1ccc2c(c1)N=C(c1ccc(Cl)s1)c1ccccc1S2 [drawing 575] | 3.16 | – | 97 | – | – |
| CCCCCC1=Nc2cc(C(=O)NN3CCCCC3)ccc2Sc2ccccc21 | 251 | 100 | – | – | – |
| O=C(NCCc1ccc(Cl)cc1)c1ccc2c(c1)N=C(c1cccc(Cl)c1)c1ccccc1S2 [drawing 569] | 2.51 | 106 | – | – | – |
| Cc1ccsc1C1=Nc2cc(C(=O)NC(C)C)ccc2Sc2ccccc21 [drawing 684] | 63.1 | 95 | – | – | – |
| O=C(NCc1ccccc1Cl)c1ccc2c(c1)N=C(c1ccccc1F)c1ccccc1S2 [drawing 622] | – | 72 | – | 63.1 | – |
| CCCCNC(=O)c1ccc2c(c1)N=C(c1ccc(Cl)c(F)c1)c1ccccc1S2 [drawing 769] | 10 | 106 | – | – | – |
| O=C(NCc1ccc(Cl)cc1Cl)c1ccc2c(c1)N=C(c1ccc(Cl)cc1)c1ccccc1S2 [drawing 901] | 15.8 | 101 | – | – | – |
| NS(=O)(=O)c1ccc(CNC(=O)c2ccc3c(c2)N=C(c2ccc(F)cc2)c2ccccc2S3)cc1 [drawing 812] | – | 83 | – | – | – |
| O=C(NCc1cccs1)c1ccc2c(c1)N=C(c1cccc(F)c1)c1ccccc1S2 [drawing 595] | 3.16 | 100 | – | – | – |
| CCCC1=Nc2cc(C(=O)NCCCN3CCN(C)CC3)ccc2Sc2ccccc21 | 2510 | 120 | – | – | – |
| CCCNC(=O)c1ccc2c(c1)N=C(c1cccc(F)c1)c1ccccc1S2 [drawing 893] | 15.8 | 109 | – | – | – |
| Cc1csc(CNC(=O)c2ccc3c(c2)N=C(c2ccc(F)cc2)c2ccccc2S3)c1 [drawing 732] | 79.4 | 80 | – | – | – |
| O=C(NN1CCCCC1)c1ccc2c(c1)N=C(c1ccc(F)cc1)c1ccccc1S2 [drawing 845] | – | – | 97 | – | – |
| CCOCCNC(=O)c1ccc2c(c1)N=C(N1CCCCC1)c1ccccc1S2 | 794 | 103 | – | – | – |
| CCCC1=Nc2cc(C(=O)NCCc3cc(OC)ccc3OC)ccc2Sc2ccccc21 [drawing 1051] | 31.6 | 98 | – | – | – |
| CCOC(=O)c1ccc(C2=Nc3cc(C(=O)NCc4ccncc4)ccc3Sc3ccccc32)cc1 | 501 | 69 | – | – | – |
| O=C(NCc1cccc(Cl)c1)c1ccc2c(c1)N=C(c1cccc(Cl)c1)c1ccccc1S2 [drawing 603] | 3.98 | 112 | – | – | – |

| SMILES | IC50 [1] [nM] | Emax (Appendix A) [%] | % Inhibition (Appendix A) [%] | IC50 (pIC50, Appendix A) [nM] | pIC50 (Appendix A) |
| --- | --- | --- | --- | --- | --- |
| O=C(NCc1ccncc1)c1ccc2c(c1)N=C(c1ccccc1F)c1ccccc1S2 | – | 94 | – | – | – |
| CCCC1=Nc2cc(C(=O)NCCCSC3CCCCC3)ccc2Sc2ccccc21 | 158 | 95 | – | – | – |
| O=C(NCCc1cccc(Cl)c1)c1ccc2c(c1)N=C(c1ccccc1)c1ccccc1S2 [drawing 1069] | 31.6 | 102 | – | – | – |
| CCONC(=O)c1ccc2c(c1)N=C(c1cccc(F)c1)c1ccccc1S2 | 200 | 81 | – | – | – |
| COc1ccc(C2=Nc3cc(C(=O)NCc4cccnc4)ccc3Sc3ccccc32)cc1 [drawing 712] | 79.4 | 106 | – | – | – |
| O=C(NC1CCCC1)c1ccc2c(c1)N=C(c1cccc(Cl)c1)c1ccccc1S2 [drawing 702] | 79.4 | 96 | – | – | – |
| CCCC1=Nc2cc(C(=O)NCCN3CCOCC3)ccc2Sc2ccccc21 | – | 98 | – | – | – |
| Cc1cccnc1C1=Nc2cc(C(=O)NCc3ccco3)ccc2Sc2ccccc21 | 316 | 83 | – | – | – |
| O=C(NCCC(F)(F)F)c1ccc2c(c1)N=C(c1ccc(F)cc1)c1ccccc1S2 [drawing 827] | 12.6 | 98 | – | – | – |
| CN(NC(=O)c1ccc2c(c1)N=C(c1ccccc1F)c1ccccc1S2)C1CCCCC1 | 316 | 74 | – | – | – |
| CONC(=O)c1ccc2c(c1)N=C(c1ccc(Cl)cc1F)c1ccccc1S2 | 200 | 69 | – | – | – |
| O=C(NN1CCCC1)c1ccc2c(c1)N=C(c1ccc(Cl)cc1)c1ccccc1S2 [drawing 698] | 79.4 | 100 | – | – | – |
| Cc1ccsc1C1=Nc2cc(C(=O)NCc3cccnc3)ccc2Sc2ccccc21 | 100 | 102 | – | – | – |
| CCCC1=Nc2cc(C(=O)NCCc3ccccc3)ccc2Sc2ccccc21 | 794 | 98 | – | – | – |
| CCCCN(C)C(=O)c1ccc2c(c1)N=C(c1cccc(F)c1)c1ccccc1S2 | 63.1 | 90 | – | – | – |
| CC(C)CNC(=O)c1ccc2c(c1)N=C(c1ccc(Cl)s1)c1ccc(F)cc1S2 [drawing 703] | 7.94 | 117 | – | – | – |
| CCCCC1=Nc2cc(C(=O)NN3CCCCC3)ccc2Sc2ccccc21 | 316 | 82 | – | – | – |
| CCCCC(=O)c1ccc2c(c1)N=C(C1CCCCC1)c1ccccc1S2 | 50.1 | 37 | – | – | – |
| Cc1ccsc1C1=Nc2cc(C(=O)NN3[C@H](C)CCC[C@@H]3C)ccc2Sc2ccccc21 [drawing 772] | – | 89 | – | 100 | – |
| O=C(NC1CCCCC1)c1ccc2c(c1)N=C(c1ccc(Cl)cc1)c1ccccc1S2 [drawing 738] | 79.4 | 96 | – | – | – |
| O=C(NCCc1cccnc1)c1ccc2c(c1)N=C(c1cccc(F)c1)c1ccccc1S2 [drawing 981] | – | 94 | – | 20 | – |
| O=C(NCc1ccccc1)c1ccc2c(c1)N=C(c1ccccc1)c1ccccc1S2 [drawing 755] | 10 | 111 | – | – | – |
| O=C(NCCc1cccc(Cl)c1)c1ccc2c(c1)N=C(C1CCCCC1)c1ccccc1S2 [drawing 1001] | 25.1 | 102 | – | – | – |
| O=C(NCc1ccccn1)c1ccc2c(c1)N=C(c1ccccn1)c1ccccc1S2 | 316 | 81 | – | – | – |
| O=C(NCc1ccccc1)c1ccc2c(c1)N=C(N1CCCCC1)c1ccccc1S2 [drawing 681] | 6.31 | 110 | – | – | – |

| SMILES | IC50 [1] [nM] | Emax (Appendix A) [%] | % Inhibition (Appendix A) [%] | IC50 (pIC50, Appendix A) [nM] | pIC50 (Appendix A) |
| --- | --- | --- | --- | --- | --- |
| CCCC1=Nc2cc(C(=O)NCc3ccccc3OC)ccc2Sc2ccccc21 | – | 91 | – | 63.1 | – |
| CCONC(=O)c1ccc2c(c1)N=C(c1ncccc1C)c1ccccc1S2 | – | 21 | – | – | 1.0 |
| Cc1cc(NC(=O)c2ccc3c(c2)N=C(c2cccc(F)c2)c2ccccc2S3)no1 | > 1260 | 29 | – | – | – |
| COc1ccccc1C1=Nc2cc(C(=O)NCC(C)C)ccc2Sc2ccccc21 | 158 | 91 | – | – | – |
| O=C(NN1CCCCC1)c1ccc2c(c1)N=C(c1ccc(Cl)cc1)c1ccccc1S2 [drawing 914] | – | – | 51 | – | – |
| CCCC1=Nc2cc(C(=O)NCCC3=CCCCC3)ccc2Sc2ccccc21 | 50.1 | 118 | – | – | – |
| Cc1ccsc1C1=Nc2cc(C(=O)NCC(C)C)ccc2Sc2ccccc21 [drawing 757] | 10 | 88 | – | – | – |
| Cc1cccc(C2=Nc3cc(C(=O)NC4CCC(F)(F)CC4)ccc3Sc3ccccc32)n1 [drawing 869] | 15.8 | 74 | – | – | – |
| O=C(NCc1cccc(Cl)c1)c1ccc2c(c1)N=C(c1ccccc1)c1ccccc1S2 [drawing 899] | 15.8 | 107 | – | – | – |
| Cc1ccc(CNC(=O)c2ccc3c(c2)N=C(c2ccsc2)c2ccccc2S3)o1 [drawing 803] | 10 | 94 | – | – | – |
| CCCNC(=O)c1ccc2c(c1)N=C(c1ccc(Cl)s1)c1ccccc1S2 [drawing 675] | 6.31 | 88 | – | – | – |
| O=C(NCc1cccnc1)c1ccc2c(c1)N=C(c1ccc(Cl)cc1)c1ccccc1S2 [drawing 1093] | 31.6 | 88 | – | – | – |
| CCOCCNC(=O)c1ccc2c(c1)N=C(c1ccc(Cl)cc1)c1ccccc1S2 [drawing 604] | 50.1 | 92 | – | – | – |
| CCN(CCNC(=O)c1ccc2c(c1)N=C(c1ccccc1)c1ccccc1S2)c1ccccc1 [drawing 777] | 10 | 106 | – | – | – |
| COCCNC(=O)c1ccc2c(c1)N=C(c1ccc(Cl)s1)c1ccccc1S2 [drawing 819] | 12.6 | 103 | – | – | – |
| CC(CNC(=O)c1ccc2c(c1)N=C(c1ccccc1F)c1ccccc1S2)c1ccccc1 (centres unmarked) [drawing 909] | 15.8 | 110 | – | – | – |
| CCONC(=O)c1ccc2c(c1)N=C(c1ccccn1)c1ccccc1S2 | – | 3 | – | – | 1.0 |
| COCCNC(=O)c1ccc2c(c1)N=C(c1ccc(Br)cc1)c1ccccc1S2 [drawing 1081] | 31.6 | 69 | – | – | – |
| CCCC1=Nc2cc(C(=O)NCCCOC(C)C)ccc2Sc2ccccc21 | 63.1 | 117 | – | – | – |
| CCCC1=Nc2cc(C(=O)NCc3ccco3)ccc2Sc2ccccc21 | 31.6 | 103 | – | – | – |
| CCCC1=Nc2cc(C(=O)NN3CCCCC3)ccc2Sc2ccccc21 | 158 | 80 | – | – | – |
| O=C(NC1CCCCC1)c1ccc2c(c1)N=C(c1ccccc1F)c1ccccc1S2 [drawing 740] | 79.4 | 109 | – | – | – |
| O=C(Cc1ccccc1)NNC(=O)c1ccc2c(c1)N=C(c1ccc(Cl)cc1)c1ccccc1S2 [drawing 588] | 50.1 | 85 | – | – | – |
